Assay results: PubChem BioAssay (NCI)
Values joined by “and” are separate entries in the source; they are usually repeats but may differ in a detail not shown here. Equal entries are not always repeated.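 Results reflect a 48-hour exposure of cells in 96-well plates to compound at five concentrations. Here, GI50 denotes the concentration required for 50% inhibition of growth. TGI: concentration producing complete growth inhibition.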

Assays:
Assay in all cases: inhibition of tumour cell growth, NCI panel, 48 h
[1] = test system: SK-MEL-2 melanoma
[2] = test system: UO-31 renal
[3] = test system: NCI-H23 lung
[4] = test system: U251 CNS
[5] = test system: SK-MEL-28 melanoma
[6] = test system: A549 NSCLC
[7] = test system: TK-10 renal
[8] = test system: A498 renal
[9] = test system: 786-0 renal
[10] = test system: MCF7 breast

SMILES | GI50 [1] | TGI [1] | GI50 [2] [µM] | TGI [2] [µM] | GI50 [3] | TGI [3] | GI50 [4] | TGI [4] [µM] | GI50 [5] | TGI [5] | GI50 [6] | TGI [6] | GI50 [7] | TGI [7] | GI50 [8] [µM] | TGI [8] [µM] | GI50 [9] [µM] | TGI [9] [µM] | GI50 [10] [µM] | TGI [10] [µM]
O=C(CC(Cl)=C(Cl)Cl)Nc1ccccc1 | > 100 µM | > 100 µM | > 100 | > 100 | > 100 µM | > 100 µM | > 100 µM | > 100 | > 100 µM | > 100 µM | > 100 µM | > 100 µM | > 100 µM | > 100 µM | > 100 | > 100 | > 100 | > 100 | > 100 | > 100
O=Nc1ccc(O)c(=O)cc1 | 2.61 µM | 5.89 µM | 1.15 | 2.69 | 3.04 µM | 12 µM | 3.08 µM | 11.6 | 2.26 µM | 7.02 µM | 12.3 µM | 68.9 µM | 1.82 µM | 9.18 µM | 4.89 | 28.6 | 2.18 | 5.52 | 2.73 | 14
CC(C)(C)c1ccc(S(=O)(=O)Oc2ccc3c4c(c(=O)oc3c2)CCCCC4)cc1 | 16.5 µM | 55.6 µM | 12.7 | 44 | 13.5 µM | > 100 µM | 12.5 µM | 54.4 | 24.1 µM | > 100 µM | 14.2 µM | 39.8 µM | 18.1 µM | 36.4 µM | 6.53 | 36.3 | 25.3 | > 100 | 18.2 | > 100
CCCCCCCCCCCCOC1C(CNC(=O)C2OC3OC(C)(C)OC3C2NC(=O)Nc2ccc(CC(=O)OC)cc2)OC2OC(C)(C)OC21 (stereo not given) | > 100 µM | > 100 µM | > 100 | > 100 | > 100 µM | > 100 µM | 18.3 µM | > 100 | > 100 µM | > 100 µM | > 100 µM | > 100 µM | > 100 µM | > 100 µM | > 100 | > 100 | > 100 | > 100 | > 100 | > 100
C=C1CC[C@@H]2[C@](C)(COC(C)=O)[C@H](OC(C)=O)CC[C@@]2(C)[C@@H]1CC(Nc1ccc(S(=O)(=O)NC(C)=O)cc1)C1=CCOC1=O (stereo not given in full) | 8.68 µM | 19.1 µM | 3.71 | 13.2 | 5.52 µM | 17.4 µM | 3.49 µM | 12 | 3.69 µM | 13.2 µM | 8.41 µM | 18.3 µM | 8.01 µM | 16.9 µM | 10.3 | 20.1 | 2.44 | 7.98 | 1.92 | 11.3
O=C(Cc1ccc(/C=C/C(=O)c2ncc[nH]2)cc1)Nc1ccc(F)cc1 | 7.47 µM | 19 µM | 2.64 | 7.06 | 1.91 µM | 9.54 µM | 1.2 µM | 4.5 | 6.26 µM | 16.6 µM | 6.94 µM | > 33.3 µM | 7.89 µM | 18.4 µM | 8.92 | 22.9 | 1.37 | 5.81 | 0.995 | 4.62
COc1cc(Nc2nc3cc(N)cc(N)c3nc2-c2ccccc2)cc(OC)c1OC | 15.9 µM | 35.2 µM | 15.1 | 90.3 | 24.9 µM | 76.7 µM | 24.6 µM | > 100 | 1.45 µM | 20.7 µM | 29.8 µM | > 100 µM | 23.9 µM | 66.5 µM | 31.3 | > 100 | 14.6 | 40.3 | 25.5 | 94.5
CC(=O)Nc1ccc2c(c1)C(c1ccccc1Cl)=Nc1c(n[nH]c1C)N2 | > 25 µM | > 25 µM | 5.63 | > 22.5 | 12.4 µM | > 25 µM | 1.1 µM | > 25 | > 23.5 µM | > 25 µM | 4.46 µM | > 25 µM | 4.13 µM | > 25 µM | 0.746 | 6.99 | 7.79 | > 25 | 2.26 | > 25
COc1cc2c(cc1OC)[C@@H](Nc1ccc(C#N)cc1)C1COC(=O)[C@@H]1C2c1cc(OC)c(O)c(OC)c1 (stereo not given in full) | 3.7 µM and 1.49 µM | 23 µM and 5.86 µM |  | 11.9 | 0.159 µM and 0.0337 µM | 1.47 µM and 0.257 µM | 0.0457 µM and 0.178 µM |  | 3.4 µM and 6.94 µM | 95 µM and > 100 µM | 0.147 µM and 0.1 µM | 7.31 µM and 4.95 µM | 2.49 µM and 1.06 µM | 6.73 µM and 7.87 µM |  | 0.794 |  | 2.76 |  | > 100
c1cc(NNc2cccc(-c3nn[nH]n3)c2)cc(-c2nn[nH]n2)c1 |  | > 100 µM |  | > 100 |  | > 100 µM |  | > 100 |  | > 100 µM |  | > 100 µM |  | > 100 µM |  | > 100 |  | > 100 |  | > 100
COc1ccc2c(c1OC)C[C@@H]1c3c(cc4c(c3-2)OCO4)CCN1C |  | 88.7 µM |  | 45.4 |  | > 100 µM |  | > 100 |  | > 100 µM |  | > 100 µM |  | 74.6 µM |  | 63.5 |  | 63.9 |  | > 100
O=c1c2c(=NCCN3CCCC3)cc3c(=O)n(CCCN4CCOCC4)c(=O)c4c(-c5ccc(CN6CCCC6)cc5)cc(c(O)n1CCCN1CCOCC1)c2c4-3 | 0.112 µM | 0.382 µM | 0.038 | 0.231 | 0.0261 µM | 0.158 µM | 0.0412 µM | 1.36 | 0.156 µM | 0.557 µM | 0.0288 µM | 1.39 µM | 0.0329 µM | 0.84 µM | 0.0381 | 0.155 | 0.0416 | 0.383 | 0.0284 | 0.446
COc1ccc(C2=N[C@@H](Cc3ccccc3)C(=O)Nc3ccsc32)cc1 | 11.7 µM | 30 µM | 8.7 | 34.6 | 11.1 µM | 39.6 µM | 4.51 µM | 20.5 | 9.66 µM | 24.5 µM | 4.69 µM | 29.5 µM | 13 µM | 56.6 µM | 2.32 | 9.04 | 10.7 | 36.6 | 3.73 | 25.4
